This note sets out measurements from patent US9539245B2, “Combination of immunotherapies with activators of Tie-2” (Aerpio Therapeutics, Inc., priority 2014, dated 2017).

“Also recorded” adds a separate entry of the source.

Assay [1] relates to Tie-2. Kind of assay: Western blot and staining of the stroke hemisphere of treated mice. The following applies: in vivo. The arrangement: species or system mouse. The method, then: (§1) For the Western blot experiments, samples were solubilized in urea/SDS buffer (2.3 M urea, 1.5% SDS, 50 mM Tris, 25 mM TCEP, and 0.01% BPB) for 1.5 h at 30° C. with shaking. Solubilized samples were loaded into Tris-HCl Bis-acrylamide gels (8-15%), electrophoresed, and subsequently transferred to nitrocellulose membranes at 4° C. overnight. Membranes were blocked for 1 hour at room temperature on a 1× Roti®-block (Roth™), incubated with primary antibodies overnight at 4° C., washed with PBS-T (0.5% Tween®-20), incubated with horseradish peroxidase-conjugated or fluorescent secondary antibodies (LI-COR™) for 1 h at room temperature. Membranes were imaged in Odyssey® (LI-COR™) imaging device and quantitation was performed on exported raw tiff files using Image Studio™ 2.1 software (LI-COR™).
Activation of Tie-2 upon treatment indicated by higher pTie-2 and pAkt levels in stroke hemispheres confirms in vivo activity (FIG. 15). […] FIG. 16 illustrates representative images (n=2 each group) of Tie-2 (red) and pTie-2 (green) staining of the stroke hemisphere.
(In western blotting, separated proteins are transferred to a membrane and probed.)

In assay [2] the test system is Tie-2. The assay can be described thus: Western blot analysis of MBMECs pre-treated with hAng-2. Type of assay: cell-based, mouse. The following applies: MBMECs pretreated with hAng-2 (16 h, 500 ng/ml), then Tie-2 activator 50 μM, 10 min. The method, then: as §1
Activation of Tie-2/Akt by the Tie-2 activator alone indicates a direct and specific effect of this drug. Phosphorylation of VE-Cadherin responsible for increased junctional permeability was reduced upon treatment with the Tie-2 activator (FIGS. 13 and 14). This observation explains in part the decreased permeability and stroke size in vivo.

Assay [3] has as its system stroke after MCAO in mice. The assay can be described thus: Middle cerebral artery occlusion (MCAO) stroke model in mice. The format is in vivo, mouse. The method, then: Mice with endothelial-specific overexpression of hAng-2 (DT mice) underwent a permanent middle cerebral artery occlusion (MCAO). After a permanent MCAO was performed, animals were allowed to survive for 24 hours or 72 hours. Mice were anesthetized intraperitoneally (i.p.) with a combination of midazolam/medetomidine/fentanyl (5/0.5/0.05 mg/kg body mass). Anesthesia was terminated by i.p. injection of atipamezol/naloxone/flumazenil 2.5/1.2/0.5 mg/kg body weight). Brains were isolated and frozen down in Tissue TEK® O.C.T. and stored at −80° C. until use. WT mice also underwent the procedure as controls.
Larger infarcts were detected in DT mice that were subjected to MCAO as compared to WT mice that were subjected to MCAO after 24 hours and 72 hours (FIG. 9). Additionally, the IgG permeability in the stroke area was increased in DT mice (FIG. 10). Mice were treated with a Tie-2 activator shown below: […]

For the next assay, the system named is MBMEC monolayers. The assay can be described thus: Transwell permeability assay of MBMEC monolayers with fluorescent tracers. The format is cell-based, mouse (C57BL/6J). The following applies: MBMECs from C57BL/6J mice, FIG. 2. On the procedure: MBMECs were isolated from CD1 and C57BL/6J mice pooling 4-6 animals in each preparation and cultured on transwell inserts. Permeability of the MBMEC monolayers to 0.45 kD Lucifer-Yellow (LY; Sigma™), Texas Red® 3 kD dextran (Invitrogen™), TMR 20 kD dextran (Sigma™) and 70 kD FITC dextran (Sigma™) was determined as follows. Medium from the bottom chamber at each time point was read in a fluorescence plate reader (Tecan™) at the corresponding tracer excitation/emission and normalized to the apical chamber fluorescence with the ratio for the control condition set to 100%.
To rule out the possibility that Ang-2-mediated permeability was specific to the CD1 strain of mice used in the experiment, transwell assays applying fluorescent dextrans (3 kD, 20 kD, and 70 kD) and Lucifer-Yellow (LY 0.45 kD), using C57BL/6J mice were conducted.

The subject of assay [4] is primary mouse brain endothelial cells (MBMECs). Kind of assay: Transendothelial electrical resistance (TEER) measurements of MBMEC monolayers. Type of assay: cell-based. The following applies: recombinant human Ang-2 treatment; CD1 mice; FIG. 1 PANEL B. On the procedure: To assess the role of Angiopoietin 1 (Ang-1), Angiopoietin 2 (Ang-2), and a Tie-2 activator in modulating permeability at the blood-brain barrier transendothelial electrical resistance (TEER) measurements were performed to obtain continuous barrier tightness index of primary mouse brain endothelial cells (MBMECs).
TEER measurements were performed as follows: isolated mouse brain microvascular endothelial cells (MBMECs) (100,000 cells/cm^2, 4-6 mice/prep) were seeded onto 1 μm pore 24-well PET transwell inserts (Greiner Bio-One) pre-coated with fibronectin (5 μg/cm^2, Sigma-Aldrich™). The inserts were transferred to a cellZscope® device placed in a humidified incubator (37° C., 5% CO2) and impedance measurements obtained continuously. Treatment was started upon reaching a plateau in TEER levels.
Isolation of mouse brain microvascular endothelial cells (MBMECs) was conducted as follows: Meninges-free brains were pooled and homogenized followed by digesting the pellet with 0.75% Collagenase II (Worthington™) in buffer A (1:1:1 volume ratio) for 1 hour with shaking at 37° C. For removing myelin, samples were resuspended in 25% BSA and centrifuged at 1500×g for 30 min at 4° C., followed by digesting the pellet with Collagenase/Dispase® (Roche™) and DNase I (Worthington™) in buffer A for 12 min at 37° C. […]

Consider `CCc1nc([C@H](Cc2ccc(NS(=O)(=O)O)cc2)NC(=O)[C@H](Cc2ccccc2)NC(=O)OC)cs1` [Tie-2 activator], for which the “Akt activation (pAkt) in the stroke hemisphere” value in the assay with Tie-2 [1] (Western blot, n=7, FIG. 15) is “increased Akt activation”. Besides, in the assay with Tie-2 [1] (treated mice compared to controls, FIGS. 15 and 16), the “pTie-2 in the stroke hemisphere” value is “increased pTie-2 staining”. Also, in the assay on Tie-2 [2] (FIGS. 13 and 14), the “Akt activation (pAkt levels)” value is “increased Tie-2 and Akt activation”; the “Tie-2 activation (pTie-2 levels)” value is on record as “increased levels of pTie-2”. Moreover, in the assay with Tie-2 [2] (n=3), the “phosphorylation of VE-Cadherin (pVE-Cadherin)” value is recorded as “decreased in tendency, but not significant”. For the same compound, the “stroke size (TTC staining)” value in assay [3] (WT mice after MCAO, compared to vehicle dH2O control, FIG. 11) is recorded as “significantly decreased stroke sizes”. Further, in assay [3] (mice after MCAO, compared to control), the “permeability to IgG in the stroke area” value is recorded as “Decreased permeability to IgG”. Besides, the “neurological behavior after stroke (behavior scoring test)” value in assay [3] (mice after stroke, FIG. 19) is “improvement in neurological behavior”.
As for “rhAng-2: recombinant human angiopoietin 2, a Tie-2 ligand”, the “permeability to tracers (fluorescent dextrans 3 kD, 20 kD, 70 kD and Lucifer-Yellow 0.45 kD)” value with MBMEC monolayers is recorded as “increased permeability to tracers of all sizes”. Also, the “transendothelial electrical resistance (TEER) of MBMECs” value in assay [4] was “decrease in TEER; also recorded: decrease in transendothelial electrical resistance”.
